Data from patent US20250082700A1, “METHODS AND COMPOSITIONS OF TREATING BIOLFILM-RELATED DISEASES” (UNIVERSITY OF ROCHESTER, priority 2022, published 2025).
Ends that are not written are not given here.

Columns and labels:
[1] = system: C. albicans from 1 representative S-ECC child; assay: Inhibition of C. albicans clinical isolate by plantaricin (MIC); type: cell-based, Candida albicans; conditions: clear culture plated, additional 48 hours
Procedure: (§1) Bacteriocins, antimicrobial molecules, produced by L. plantarum are known as plantaricins. Peptide plantaricin-149 (acetate) powers (Creative Peptides, Shirley, USA) were dissolved in ddH2O to prepare plantaricin solutions. S. mutans (3.6×10^3 CFU/ml) and C. albicans (3.1×10^1 CFU/ml) from 1 representative S-ECC child were selected and treated with the plantaricin with a range of concentration (0-400 μg/ml). The mixtures of plantaricin with S. mutans or C. albicans were grown for 24 hours in TSBYE with 1% glucose in 96-well plates. Clear culture after 24 hours' incubation indicated no growth of microorganisms. Therefore, the minimal inhibition concentration (MIC) of plantaricin-149 was defined as the lowest concentration that inhibited the growth of S. mutans and C. albicans.
(§2) S. mutans (3.6×10^3 CFU/ml) and C. albicans (3.1×10^1 CFU/ml) were treated by the plantaricin ranging from 0-400 ng/ml respectively, and grew for 24 h in 1% glucose condition. The MIC of plantaricin was 400 ng/ml for S. mutans and 200 ng/ml for C. albicans. The clear culture was plated and incubated for additional 48 hours.

[2] = system: S. mutans from 1 representative S-ECC child; assay: Inhibition of S. mutans clinical isolate by plantaricin (MIC); type: cell-based, Streptococcus mutans; conditions: clear culture plated, additional 48 hours
Procedure: as §1, §2

Sequence: YSLQMGATAIKQVKKLFKKKGG [plantaricin]
- nature of inhibitory effect on C. albicans [1]: fungistatic
- nature of inhibitory effect on S. mutans [2]: bacteriostatic
